± gives the standard deviation of the averaged measurements.
Key:
Assay in all cases: level (log10 ratio to DMSO vehicle control); higher = higher biomarker level / cell amount than vehicle control
[1] = compound: C=C(C)C(=O)OCCC(F)(F)C(F)(F)C(F)(F)C(F)(F)C(F)(F)C(F)(F)F [6:2 Fluorotelomer methacrylate]; settings: in DMSO
Procedure: (§1)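 BioMAP Diversity Plus panel of 12 human primary cell co-culture systems (3C, 4H, LPS, SAg, BT, BF4T, BE3C, CASM3C, HDF3CGF, KF3CT, MyoF, Mphg). Compounds were added 1 h before stimulation and left for 24 h (MyoF 48 h; BT 72 h for soluble read-outs or 6 d for IgG). Biomarkers were read by ELISA, cytotoxicity by SRB, PBMC viability and proliferation by Alamar Blue. Each well value was divided by the mean of 8 DMSO control wells on the same plate and log10 transformed; duplicate blinded samples were tested at 4 concentrations.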

[2] = compound: C=CC(=O)OCC(F)(F)C(F)(F)C(F)(F)COC(=O)C=C [1H,1H,5H,5H-Perfluoro-1,5-pentanediol diacrylate]; settings: 6700 nM; in DMSO
Procedure: as §1

[3] = compound: COC(=O)C(F)(F)C(F)(F)OC(F)(C(F)(F)F)C(F)(F)OC(F)=C(F)F [Methyl perfluoro(3-(1-ethenyloxypropan-2-yloxy)propanoate)]; settings: in DMSO
Procedure: as §1

[4] = compound: FC(F)(F)C(F)(F)C(F)(F)C(F)(F)C(F)(F)C(F)(F)C(F)(F)I [1-Iodopentadecafluoroheptane]; settings: in DMSO
Procedure: as §1

[5] = compound: FC(F)(F)C(F)(F)C(F)(F)C(F)(F)C(F)(F)C(F)(F)CC1CO1 [3-(Perfluorohexyl)-1,2-epoxypropane]; settings: in DMSO
Procedure: as §1

[6] = compound: FC(F)(F)C(F)(F)C(F)(F)CC1CO1 [1H,1H-Heptafluorobutyl epoxide]; settings: in DMSO
Procedure: as §1

Heptafluorobutyl iodide = compound: FC(F)(F)C(F)(F)C(F)(F)CI [Heptafluorobutyl iodide]; settings: in DMSO
Procedure: as §1

[7] = compound: FC(F)(F)C(F)(F)CNCC(F)(F)C(F)(F)F [Bis(1H,1H-perfluoropropyl)amine]; settings: in DMSO
Procedure: as §1

Octafluoroadipamide = compound: NC(=O)C(F)(F)C(F)(F)C(F)(F)C(F)(F)C(N)=O [Octafluoroadipamide]; settings: in DMSO
Procedure: as §1

Nonafluoropentanamide = compound: NC(=O)C(F)(F)C(F)(F)C(F)(F)C(F)(F)F [Nonafluoropentanamide]; settings: in DMSO
Procedure: as §1

[8] = compound: NC(=O)C(F)(F)C(F)(F)C(F)(F)C(F)F; settings: in DMSO
Procedure: as §1

[9] = compound: NS(=O)(=O)C(F)(F)C(F)(F)C(F)(F)C(F)(F)C(F)(F)C(F)(F)F [Perfluorohexanesulfonamide]; settings: in DMSO
Procedure: as §1

[10] = compound: O=C(O)C(F)(F)C(F)(F)C(F)(F)C(F)(F)C(F)(F)C(F)(F)C(F)(F)C(F)(F)C(F)(F)C(F)F [11-H-Perfluoroundecanoic acid]; settings: in DMSO
Procedure: as §1

[11] = compound: O=C(O)C=CC(F)(C(F)(F)F)C(F)(F)F [3-(Perfluoroisopropyl)-2-propenoic acid]; settings: in DMSO
Procedure: as §1

[12] = compound: O=S(=O)(Cl)C(F)(F)C(F)(F)C(F)(F)C(F)(F)C(F)(F)C(F)(F)C(F)(F)C(F)(F)F [Perfluoro-1-octanesulfonyl chloride]; settings: in DMSO
Procedure: as §1

[13] = compound: O=S(=O)(F)C(F)(F)C(F)(F)C(F)(F)C(F)(F)C(F)(F)C(F)(F)C(F)(F)C(F)(F)F [Perfluorooctanesulfonyl fluoride]; settings: in DMSO
Procedure: as §1

[14] = compound: O=S(=O)(O)C(F)(F)C(F)(F)C(F)(F)C(F)(F)C(F)(F)C(F)(F)C(F)(F)C(F)(F)C(F)(F)C(F)(F)F [Sodium perfluorodecanesulfonate]; settings: in DMSO
Procedure: as §1

[15] = compound: O=S(=O)(O)CCC(F)(F)C(F)(F)C(F)(F)C(F)(F)C(F)(F)C(F)(F)F [6:2 Fluorotelomer sulfonic acid]; settings: in DMSO
Procedure: as §1

Hexafluoroamylene glycol = compound: OCC(F)(F)C(F)(F)C(F)(F)CO [Hexafluoroamylene glycol]; settings: in DMSO
Procedure: as §1

Test System: MyoF:Decorin
- level (log10) ([1]; 6700 nM): -0.0045 ± 0.033
- level (log10) ([1]; 20000 nM): 0.0325 ± 0.028
- level (log10) ([1]; 60000 nM): 0.015 ± 0.0042
- level (log10) [2]: -0.0325 ± 0.0064
- level (log10) ([3]; 6700 nM): 0.0595 ± 0.022
- level (log10) ([3]; 20000 nM): 0.07 ± 0.017
- level (log10) ([4]; 6700 nM): 0.0365 ± 0.049
- level (log10) ([4]; 20000 nM): 0.0215 ± 0.029
- level (log10) ([5]; 6700 nM): 0.001 ± 0.03
- level (log10) ([5]; 20000 nM): 0.003
- level (log10) ([5]; 60000 nM): 0.0265 ± 0.035
- level (log10) ([6]; 6700 nM): -0.01 ± 0.014
- level (log10) ([6]; 20000 nM): -0.009 ± 0.028
- level (log10) ([6]; 60000 nM): 0.009 ± 0.035
- level (log10) (Heptafluorobutyl iodide; 6700 nM): 0.0045 ± 0.016
- level (log10) (Heptafluorobutyl iodide; 20000 nM): -0.016 ± 0.0071
- level (log10) (Heptafluorobutyl iodide; 60000 nM): 0.005 ± 0.0042
- level (log10) ([7]; 6700 nM): -0.005 ± 0.0071
- level (log10) ([7]; 20000 nM): -0.0065 ± 0.021
- level (log10) ([7]; 60000 nM): 0.015 ± 0.034
- level (log10) (Octafluoroadipamide; 6700 nM): 0.0105 ± 0.035
- level (log10) (Octafluoroadipamide; 20000 nM): -0.0025 ± 0.0092
- level (log10) (Octafluoroadipamide; 60000 nM): 0.017 ± 0.028
- level (log10) (Nonafluoropentanamide; 6700 nM): -0.0155 ± 0.0078
- level (log10) (Nonafluoropentanamide; 20000 nM): 0.013 ± 0.0028
- level (log10) (Nonafluoropentanamide; 60000 nM): -0.0045 ± 0.00071
- level (log10) ([8]; 6700 nM): 0.012 ± 0.0085
- level (log10) ([8]; 20000 nM): -0.0035 ± 0.03
- level (log10) ([8]; 60000 nM): -0.009 ± 0.0085
- level (log10) ([9]; 6700 nM): 0.0325 ± 0.076
- level (log10) ([9]; 20000 nM): -0.0095 ± 0.1
- level (log10) ([9]; 60000 nM): -0.03 ± 0.054
- level (log10) ([10]; 6700 nM): 0.0415 ± 0.077
- level (log10) ([10]; 20000 nM): 0.052 ± 0.031
- level (log10) ([11]; 6700 nM): -0.0045 ± 0.021
- level (log10) ([11]; 20000 nM): 0.004 ± 0.0014
- level (log10) ([11]; 60000 nM): 0.0225 ± 0.029
- level (log10) ([12]; 6700 nM): -0.007 ± 0.0071
- level (log10) ([12]; 20000 nM): 0.014 ± 0.033
- level (log10) ([12]; 60000 nM): 0.09 ± 0.085
- level (log10) ([13]; 6700 nM): 0.001 ± 0.011
- level (log10) ([13]; 20000 nM): -0.013 ± 0.0042
- level (log10) ([13]; 60000 nM): 0.016 ± 0.0057
- level (log10) ([14]; 1500 nM): -0.0285 ± 0.016
- level (log10) ([14]; 4400 nM): 0.013 ± 0.0099
- level (log10) ([14]; 13000 nM): -0.0025 ± 0.016
- level (log10) ([14]; 40000 nM): 0.034
- level (log10) ([15]; 6700 nM): 0.0105 ± 0.0035
- level (log10) ([15]; 20000 nM): 0.0015 ± 0.00071
- level (log10) ([15]; 60000 nM): 0.0435 ± 0.0021
- level (log10) (Hexafluoroamylene glycol; 6700 nM): 0.001 ± 0.0042
- level (log10) (Hexafluoroamylene glycol; 20000 nM): -0.01 ± 0.0042
- level (log10) (Hexafluoroamylene glycol; 60000 nM): -0.015 ± 0.013

Test System: BF4T:MMP-3
- level (log10) ([1]; 6700 nM): -0.001 ± 0.013
- level (log10) ([1]; 20000 nM): -0.0215 ± 0.028
- level (log10) ([1]; 60000 nM): 0.0055 ± 0.005
- level (log10) [2]: 0.056 ± 0.028
- level (log10) ([3]; 6700 nM): 0.0165 ± 0.018
- level (log10) ([3]; 20000 nM): 0.102 ± 0.021
- level (log10) ([4]; 6700 nM): -0.0345 ± 0.039
- level (log10) ([4]; 20000 nM): -0.0315 ± 0.016
- level (log10) ([5]; 6700 nM): 0.0155 ± 0.011
- level (log10) ([5]; 20000 nM): 0.018 ± 0.024
- level (log10) ([5]; 60000 nM): 0.0475 ± 0.03
- level (log10) ([6]; 6700 nM): 0.003 ± 0.0028
- level (log10) ([6]; 20000 nM): 0.0005 ± 0.0035
- level (log10) ([6]; 60000 nM): -0.008 ± 0.02
- level (log10) (Heptafluorobutyl iodide; 6700 nM): 0.0245 ± 0.036
- level (log10) (Heptafluorobutyl iodide; 20000 nM): -0.02 ± 0.0014
- level (log10) (Heptafluorobutyl iodide; 60000 nM): 0.026 ± 0.017
- level (log10) ([7]; 6700 nM): -0.013 ± 0.0028
- level (log10) ([7]; 20000 nM): -0.0125 ± 0.0092
- level (log10) ([7]; 60000 nM): 0.001 ± 0.025
- level (log10) (Octafluoroadipamide; 6700 nM): -0.0145 ± 0.0078
- level (log10) (Octafluoroadipamide; 20000 nM): -0.0145 ± 0.015
- level (log10) (Octafluoroadipamide; 60000 nM): 0.003 ± 0.038
- level (log10) (Nonafluoropentanamide; 6700 nM): -0.03 ± 0.0099
- level (log10) (Nonafluoropentanamide; 20000 nM): -0.0415 ± 0.012
- level (log10) (Nonafluoropentanamide; 60000 nM): -0.0105 ± 0.015
- level (log10) ([8]; 6700 nM): 0.01 ± 0.033
- level (log10) ([8]; 20000 nM): -0.005 ± 0.047
- level (log10) ([8]; 60000 nM): 0.0075 ± 0.047
- level (log10) ([9]; 6700 nM): -0.0185 ± 0.00071
- level (log10) ([9]; 20000 nM): -0.011 ± 0.0042
- level (log10) ([9]; 60000 nM): 0.0695 ± 0.061
- level (log10) ([10]; 6700 nM): 0.0035 ± 0.046
- level (log10) ([10]; 20000 nM): 0.002 ± 0.028
- level (log10) ([11]; 6700 nM): -0.003 ± 0.014
- level (log10) ([11]; 20000 nM): -0.0035 ± 0.015
- level (log10) ([11]; 60000 nM): 0.0205 ± 0.033
- level (log10) ([12]; 6700 nM): -0.0125 ± 0.0021
- level (log10) ([12]; 20000 nM): 0.0225 ± 0.028
- level (log10) ([12]; 60000 nM): -0.0595 ± 0.0035
- level (log10) ([13]; 6700 nM): -0.0015 ± 0.0021
- level (log10) ([13]; 20000 nM): -0.0095 ± 0.025
- level (log10) ([13]; 60000 nM): 0.026 ± 0.047
- level (log10) ([14]; 1500 nM): -0.0175 ± 0.032
- level (log10) ([14]; 4400 nM): -0.002 ± 0.0099
- level (log10) ([14]; 13000 nM): 0.0175 ± 0.0078
- level (log10) ([14]; 40000 nM): 0.054 ± 0.0042
- level (log10) ([15]; 6700 nM): -0.0095 ± 0.074
- level (log10) ([15]; 20000 nM): -0.0015 ± 0.0035
- level (log10) ([15]; 60000 nM): 0.0515 ± 0.025
- level (log10) (Hexafluoroamylene glycol; 6700 nM): -0.016 ± 0.037
- level (log10) (Hexafluoroamylene glycol; 20000 nM): -0.0205 ± 0.028
- level (log10) (Hexafluoroamylene glycol; 60000 nM): 0.011 ± 0.042

— the supplement of paper PMC10331698
